From patent US20240360135A1, “IMIDAZO[1,2-B]PYRIDAZINYL COMPOUNDS AND USES THEREOF” (Sumitomo Pharma Oncology, Inc., priority 2021, published 2024)
Read-outs that look alike come from different tables or passages of the source.

Key:
[1] = tested on: A549 cells; test: Wound healing assay in A549 cells with TGF-β; type: cell-based; settings: for IC50: Homo sapiens, wound healing, A549, 5 ng/ml TGF-β; for migration (wound closure): after 72 hours, vs vehicle control with TGF-β
Text: Overview. Epithelial to mesenchymal transition (EMT) is used to describe epithelial cells losing their cell to cell adhesion and polarity while gaining migratory and invasive properties. The process of EMT is required for normal embryonic development and wound healing, but has also been implicated in fibrosis. In humans, TGF-β signaling is the main driver of EMT, and inhibiting this pathway may be beneficial in various diseases such as fibrosis. A wound healing assay was used to study cell migration and cell-cell interaction, and probe the EMT properties of lung epithelial cells (A549) in presence of Compound 2 or Compound 4.
Procedure. A549 cells (ATCC, CCL-185) were seeded into the ImageLock plate (Essen Bioscience) at 2×10^4 cells/well in 100 μL of complete growth media. Cells were incubated overnight at 37° C., 5% CO2. The next day, cells were washed with 1×PBS and Compound 2, Compound 4, DMSO control (±TGF-β) or galunisertib (TGF-β inhibitor used as positive control) was added to the cells in a serum-free F12K media (0.2% DMSO final, 10 μM starting concentration, 3-fold dilution, 8-doses) in presence of 5 ng/ml TGF-β. Cells were incubated for 48 hours (until they reached confluency) at 37° C., 5% CO2. Wounds were simultaneously created using a WoundMaker™ (Essen Bioscience). Debris and non-attached cells were removed by gently washing once with F12K.
Test compound or control compound and TGF-β were added to the cells in F12K+10% FBS as previously described. The ImageLock plate was put into IncuCyteS3 instrument installed inside a 5% CO2 incubator. The plate was allowed to equilibrate in the IncuCyteS3 instrument for 15 minutes prior to scheduling the first scan and data recording. The plate was incubated for 72 hours at 37° C., and wound closure was recorded in real time with the IncuCyte S3 imaging system. Percentage of relative wound density was quantitatively calculated by the IncuCyte software.

[2] = target: T1, PIM3 (Homo sapiens, UniProt Q86V86); test: RBC HotSpot kinase inhibition assay, PIM3; type: biochemical
T1 construct: purchased Millipore 14-738
Method: (§1) Reagents. Base Reaction Buffer: 20 mM Hepes (pH 7.5), 10 mM MgCl2, 1 mM EGTA, 0.01% Brij35, 0.02 mg/ml BSA, 0.1 mM Na3VO4, 2 mM DTT, 1% DMSO. The following kinases were used in the assay at the indicated concentrations:
(§2) The following substrates were used in combination with the indicated kinases in the assay at the indicated concentration:
(§3) No cofactors were added to any of the reactions.
(§4) • 1. Prepared substrate in freshly prepared Reaction Buffer. • 2. Delivered kinase into the substrate solution and gently mixed. • 3. Delivered test compound in 100% DMSO into the kinase reaction mixture by Acoustic technology (Echo550; nanoliter range), incubated for 20 minutes at room temperature. • 4. Delivered ^33P-ATP into the reaction mixture to initiate the reaction. • 5. Incubated for 2 hours at room temperature. • 6. Detected kinase activity by P81 filter-binding method.
(§5) The results of the RBC HotSpot™ kinase assay are set forth in Table 1, wherein “A” indicates an IC50<10 nM, “B” indicates an IC50 wherein 10 nM≤IC50≤100 nM, and “C” indicates an IC50>100 nM.

[3] = target: T2, PIM2 (Homo sapiens, UniProt Q9P1W9); test: RBC HotSpot kinase inhibition assay, PIM2; type: biochemical
T2 construct: purchased Invitrogen PR6347B
Method: as §1, §2, §3, §4, §5

[4] = tested on: IL-23-induced hyperplasia; test: IL-23 induced hyperplasia mouse model (psoriasis study); type: in vivo, C57BL/6J mice; settings: for IL-17A production in ear tissue / IL-22 synthesis in ear tissue: day four; for thickness of the ear epidermal tissue: vs rmIL-23/vehicle; for gross ear thickness: caliper, vs rmIL-23/vehicle control group, BID dosing
Text: The IL-23-induced hyperplasia model involves the injection of IL-23 into the ear of mice, and is dependent on IL-22 for the development of dermal inflammation and acanthosis. This model is commonly used to investigate pathways involved in psoriasis as well as potential therapies. To test the ability of Compounds 2 and 4 to reduce psoriasis in vivo, an IL-23 induced hyperplasia mouse model was utilized, and analyses of end-points, such as IL-17A and IL-22 levels, and histological measure of epidermal thickness of the ear tissue, were performed. Procedure. Female C57BL/6J mice between 9 to 13 weeks old (purchased from Taconic Biosciences) were weighed on the day prior to study start to establish a baseline. All treatment arms contained ten animals. All animals, except the sham/vehicle group received 0.4 μg of recombinant mouse IL-23 (rmIL-23) in a volume of 20 μL intradermally into one ear. Mice in group 1 (sham/vehicle) received 20 μL PBS. A total of 4 injections per ear was performed while the second ear was not injected nor analyzed. All drugs were prepared in 0.5 percent methylcellulose and 2 percent Tween 80. Starting on day zero of the study (0.5 to 4 hours before rmIL-23 injection), two doses of test compound (100 or 150 milligrams per kilogram of Compound 4, or 50 or 75 milligrams per kilogram of Compound 2) were given. All dosing was at the same time (+/−1 hour) each day with no less than 10 hours and no more than 14 hours between doses. On days zero (before rmIL-23 injection), three, and four (approximately 24 hours after the final hyperplasia induction injection), thickness of ears was measured using a caliper. Measurements were performed blind, by a person unaware of group or previous measurements. On day four, approximately 24 hours after the final hyperplasia induction injection, all mice were euthanized, and treated ears collected and weighed. Half of each ear was weighed and frozen for cytokine analysis (IL-17A and IL-22 concentration was measured using the Luminex technology by ELISA). The other half of each ear were fixed in 10 percent buffered formalin following H&E staining for histological analysis.

[5] = 100 milligrams per kilogram twice a day
[6] = 150 milligrams per kilogram twice a day
[7] = 75 milligrams per kilogram twice a day

T2 sequence (Q9P1W9 whole entry): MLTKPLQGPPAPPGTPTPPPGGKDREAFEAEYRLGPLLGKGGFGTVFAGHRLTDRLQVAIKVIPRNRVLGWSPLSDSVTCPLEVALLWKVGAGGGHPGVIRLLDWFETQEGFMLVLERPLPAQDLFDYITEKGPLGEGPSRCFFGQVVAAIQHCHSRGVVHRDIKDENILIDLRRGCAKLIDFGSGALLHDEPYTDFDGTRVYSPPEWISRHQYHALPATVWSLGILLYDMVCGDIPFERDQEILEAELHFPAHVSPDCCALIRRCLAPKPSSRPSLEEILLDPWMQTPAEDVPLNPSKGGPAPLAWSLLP

Compound | IC50 ([1]; 24 h, read-out: IC50 (μM) 24 h) [µM] | IC50 ([1]; 48 h, read-out: IC50 (μM) 48 h) [µM] | IC50 ([1]; 72 h, read-out: IC50 (μM) 72 h) [µM] | migration (wound closure) [1] | IC50 [2] [nM] | IC50 [3] [nM] | IL-17A production in ear tissue [4, 5] | IL-22 synthesis in ear tissue [4, 5] | thickness of the ear epidermal tissue [4, 5] | gross ear thickness, comparison between groups [4, 6] | IL-17A production in ear tissue [4, 6] | IL-22 synthesis in ear tissue [4, 6] | thickness of the ear epidermal tissue [4, 6] | gross ear thickness [4] | IL-17A production in ear tissue [4, 7] | IL-22 synthesis in ear tissue [4, 7] | thickness of the ear epidermal tissue [4, 7]
CC(C)(O)C12CCC(Nc3ccc4ncc(-c5cc(C6CC6)[nH]n5)n4n3)(CC1)CC2 [Compound 4, 2-(4-((3-(5-cyclopropyl-1H-pyrazol-3-yl)imidazo[1,2-b]pyridazin-6-yl)amino)bicyclo[2.2.2]octan-1-yl)propan-2-ol] | 1 to 10 | 1 to 10 | 1 to 10 | strongly inhibited | < 10 | 10 to 100 | strongly inhibited | reduced | significantly reduced | greater effect | strongly inhibited | reduced | significantly reduced | significantly reduced | – | – | –
Cc1cc(-c2cnc3ccc(NC45CCC(C(C)(C)O)(CC4)CC5)nn23)n[nH]1 [Compound 2, 2-(4-((3-(5-methyl-1H-pyrazol-3-yl)imidazo[1,2-b]pyridazin-6-yl)amino)bicyclo[2.2.2]octan-1-yl)propan-2-ol] | 1 to 10 | 1 to 10 | 1 to 10 | strongly inhibited | < 10 | > 100 | – | – | – | – | – | – | – | significantly reduced | strongly inhibited | reduced | significantly reduced
